# According to US20160235752A1, “COMPOSITIONS, METHODS OF USE, AND METHODS OF TREATMENT” (THE UNIVERSITY OF NEW ORLEANS, priority 2013, published 2016):
# Marks after values point to notes of the source that are not given here.
# Test system: Candida albicans (ATCC no. 10231)
# Experiment: MIC determination by broth microdilution (NCCLS), visual scoring
# Assay type: cell-based
# Conditions: for MIC80: Candida albicans, ATCC10231, read-out: MIC80 C. albicans
# Method: The antifungal activity of the 2,4,6-pyrimidinetrione analogs shown in Schemes 2-6 were evaluated in vitro using Candida albicans (ATCC no. 10231) and Candida glabrata (ATCC no 48435). All assays were done in accordance with NCCLS reference documents^29.
# Master stock concentrations of all tested compounds were prepared to ensure that the maximum final concentration of DMSO was 1% or less. Subsequent 2-fold serial dilutions were made using sterile water to a final concentration of 1280-5.00 μg/ml. A final 10-fold dilution of each drug was made by aliquotting 0.1 mL of each drug dilution into 0.9 mL of fungal suspension in RPMI 1640 media with 10 mM HEPES buffer added (see methodology below), giving final concentrations tested in the range of 128-0.5 μg/ml.
# Antifungal susceptibility studies and minimal inhibitory concentrations (MIC) values for Candida albicans (ATCC no. 10231) and Candida glabrata (ATCC no. 48435) were determined by the broth microdilution technique in accordance with NCCLS reference documents. Microdilution panels ranged from 0.5 to 128 μg/mL. All organisms were subcultured on Sabouraud agar and passaged to ensure purity and viability. The initiating inocula were prepared by picking 5-7 isolated colonies ˜1 mm in diameter from freshly prepared YM agar plates. Colonies were resuspended in sterile water, vortexed and the cell density was adjusted spectrophotometrically to the transmittance of a 0.5 McFarland standard at a wavelength of 530 nm, to yield a stock suspension of 1×10^6-5×10^6 cells/mL. The stock was allowed to hydrate for 30 minutes at room temperature. A working suspension was then made by diluting the stock 1:50 with RPMI 1640 media containing HEPES buffer. The working suspension was used for all assays. The plates were incubated at 35° C. for 48-72 hours in a humid atmosphere. Growth was scored visually. MIC values are defined as the lowest concentration of agent that prevents any discernible growth, ˜80% reduction of growth, as compared with drug-free control wells. All assays were run in parallel using either fluconazole or amphotericin B at the NCCLS recommended concentrations^29 as a drug control (Sigma-Aldrich).
# [1] = Table 5, Schiff Bases of 5-acylpyrimidinetriones
# [2] = Table 8, values marked * (no footnote in this table)
# [3] = Table 9, Benzenesuifonohydrazones of 5-Acylpyrimidinetrione
# [4] = Table 8, N-Acylhydrazones of 5-Acylpyrimidinetriones
smiles,measurement,setting,value
CN1C(=O)C(/C=N/n2cnnc2)C(=O)N(C)C1=O [BA110],MIC80 C. albicans,[1],"— (none of the 5-acyl-2,4,6-pyrimidinetriones, 5-alkylated pyrimidinetriones or the 5,5-dialkylated pyrimidinetriones showed antifungal activity through 125 μg/mL)"
"CN/N=C/C1C(=O)N(C)C(=O)N(C)C1=O [BA122, 1,3-dimethyl-5-[(E)-(2-methylhydrazinylidene)methyl]pyrimidine-2,4,6-trione]",MIC80,,62 µg/mL
"C/C(=N\N)C1C(=O)NC(=O)NC1=O [BA118, 5-[(1E)-1-hydrazinylideneethyl]pyrimidine-2,4,6-trione]",MIC80,,> 125 µg/mL
CN1C(=O)C(/C=N/c2nnc[nH]2)C(=O)N(C)C1=O [BA108],MIC80 C. albicans,[1],"— (none of the 5-acyl-2,4,6-pyrimidinetriones, 5-alkylated pyrimidinetriones or the 5,5-dialkylated pyrimidinetriones showed antifungal activity through 125 μg/mL)"
COc1ccc(C(=O)N/N=C/C2C(=O)N(C)C(=O)N(C)C2=O)cc1 [BA133],MIC80 C. albicans,[2],62* μg/mL
"C/C(=N\N)C1C(=O)N(C)C(=O)N(C)C1=O [BA119, 5-[(1E)-1-hydrazinylideneethyl]-1,3-dimethylpyrimidine-2,4,6-trione]",MIC80,,> 125 µg/mL
C/C(=N\NS(=O)(=O)c1ccc(C)cc1)C1C(=O)NC(=O)NC1=O [BA114],MIC80 C. albicans,[3],"— (none of the 5-acyl-2,4,6-pyrimidinetriones, 5-alkylated pyrimidinetriones or the 5,5-dialkylated pyrimidinetriones showed antifungal activity through 125 μg/mL)"
COc1ccc(C(=O)NN=C(C)C2C(=O)N(C)C(=O)N(C)C2=O)cc1 [BA135],MIC80 C. albicans,[4],"— (none of the 5-acyl-2,4,6-pyrimidinetriones, 5-alkylated pyrimidinetriones or the 5,5-dialkylated pyrimidinetriones showed antifungal activity through 125 μg/mL)"
CN1C(=O)C(/C=N/NC(=O)c2ccc([N+](=O)[O-])cc2)C(=O)N(C)C1=O [BA129],MIC80 C. albicans,[2],62* μg/mL
CN1C(=O)C(C=Nc2ccc(-c3ccccc3)cc2)C(=O)N(C)C1=O [BA106],MIC80 C. albicans,[1],"— (none of the 5-acyl-2,4,6-pyrimidinetriones, 5-alkylated pyrimidinetriones or the 5,5-dialkylated pyrimidinetriones showed antifungal activity through 125 μg/mL)"
"CN/N=C(\C)C1C(=O)N(C)C(=O)N(C)C1=O [BA123, 1,3-dimethyl-5-[(1E)-1-(2-methylhydrazinylidene)ethyl]pyrimidine-2,4,6(1H,3H,5H)-trione]",MIC80,,> 125 µg/mL
"CN/N=C/C1C(=O)NC(=O)NC1=O [BA120, 5-[(E)-(2-methylhydrazinylidene)methyl]pyrimidine-2,4,6-trione]",MIC80,,> 125 µg/mL
CN1C(=O)C(C=Nc2ccc([N+](=O)[O-])cc2)C(=O)N(C)C1=O [BA102],MIC80 C. albicans,[1],"— (none of the 5-acyl-2,4,6-pyrimidinetriones, 5-alkylated pyrimidinetriones or the 5,5-dialkylated pyrimidinetriones showed antifungal activity through 125 μg/mL)"
COc1ccc(N=C(C)C2C(=O)N(C)C(=O)N(C)C2=O)cc1 [BA99],MIC80 C. albicans,[1],"— (none of the 5-acyl-2,4,6-pyrimidinetriones, 5-alkylated pyrimidinetriones or the 5,5-dialkylated pyrimidinetriones showed antifungal activity through 125 μg/mL)"
O=C1NC(=O)C(=CC=Cc2ccccc2)C(=O)N1 [BA42],MIC80 C. albicans,"Table 2, 5-Arylidene-2,4,6-pyrimidinetriones",62 µg/mL
COc1ccc(N=C(C)C2C(=O)NC(=O)NC2=O)cc1 [BA100],MIC80 C. albicans,[1],"— (none of the 5-acyl-2,4,6-pyrimidinetriones, 5-alkylated pyrimidinetriones or the 5,5-dialkylated pyrimidinetriones showed antifungal activity through 125 μg/mL)"
O=C1NC(=O)C(/C=N/C2N=NN=N2)C(=O)N1 [BA111],MIC80 C. albicans,[1],"— (none of the 5-acyl-2,4,6-pyrimidinetriones, 5-alkylated pyrimidinetriones or the 5,5-dialkylated pyrimidinetriones showed antifungal activity through 125 μg/mL)"
CC(=NNC(=O)c1ccccc1)C1C(=O)N(C)C(=O)N(C)C1=O [BA127],MIC80 C. albicans,[4],"— (none of the 5-acyl-2,4,6-pyrimidinetriones, 5-alkylated pyrimidinetriones or the 5,5-dialkylated pyrimidinetriones showed antifungal activity through 125 μg/mL)"
O=C1NC(=O)C(/C=N/c2nnc[nH]2)C(=O)N1 [BA107],MIC80 C. albicans,[1],"— (none of the 5-acyl-2,4,6-pyrimidinetriones, 5-alkylated pyrimidinetriones or the 5,5-dialkylated pyrimidinetriones showed antifungal activity through 125 μg/mL)"
O=C1NC(=O)C(/C=N/c2ccc(-c3ccccc3)cc2)C(=O)N1 [BA105],MIC80 C. albicans,[1],"— (none of the 5-acyl-2,4,6-pyrimidinetriones, 5-alkylated pyrimidinetriones or the 5,5-dialkylated pyrimidinetriones showed antifungal activity through 125 μg/mL)"
O=C1NC(=O)C(/C=N/n2cnnc2)C(=O)N1 [BA109],MIC80 C. albicans,[1],"— (none of the 5-acyl-2,4,6-pyrimidinetriones, 5-alkylated pyrimidinetriones or the 5,5-dialkylated pyrimidinetriones showed antifungal activity through 125 μg/mL)"
Cc1ccc(S(=O)(=O)N/N=C/C2C(=O)N(C)C(=O)N(C)C2=O)cc1 [BA115],MIC80 C. albicans,[3],"— (none of the 5-acyl-2,4,6-pyrimidinetriones, 5-alkylated pyrimidinetriones or the 5,5-dialkylated pyrimidinetriones showed antifungal activity through 125 μg/mL)"
C/C(=N\NS(=O)(=O)c1ccccc1)C1C(=O)NC(=O)NC1=O [BA138],MIC80 C. albicans,[3],"— (none of the 5-acyl-2,4,6-pyrimidinetriones, 5-alkylated pyrimidinetriones or the 5,5-dialkylated pyrimidinetriones showed antifungal activity through 125 μg/mL)"
COc1ccc(C(=O)N/N=C/C2C(=O)NC(=O)NC2=O)cc1 [BA132],MIC80 C. albicans,[4],"— (none of the 5-acyl-2,4,6-pyrimidinetriones, 5-alkylated pyrimidinetriones or the 5,5-dialkylated pyrimidinetriones showed antifungal activity through 125 μg/mL)"
CN1C(=O)C(/C=N/NC(=O)c2ccccc2)C(=O)N(C)C1=O [BA125],MIC80 C. albicans,[4],"— (none of the 5-acyl-2,4,6-pyrimidinetriones, 5-alkylated pyrimidinetriones or the 5,5-dialkylated pyrimidinetriones showed antifungal activity through 125 μg/mL)"
C/C(=N\NS(=O)(=O)c1ccccc1)C1C(=O)N(C)C(=O)N(C)C1=O [BA139],MIC80 C. albicans,[3],"— (none of the 5-acyl-2,4,6-pyrimidinetriones, 5-alkylated pyrimidinetriones or the 5,5-dialkylated pyrimidinetriones showed antifungal activity through 125 μg/mL)"
"CN1C(=O)C(/C=N/N)C(=O)N(C)C1=O [BA117, 5-[(E)-hydrazinylidenemethyl]-1,3-dimethylpyrimidine-2,4,6-trione]",MIC80,,125 µg/mL
O=C1NC(=O)C(C=Nc2ccccn2)C(=O)N1 [BA103],MIC80 C. albicans,[1],"— (none of the 5-acyl-2,4,6-pyrimidinetriones, 5-alkylated pyrimidinetriones or the 5,5-dialkylated pyrimidinetriones showed antifungal activity through 125 μg/mL)"
CN1C(=O)C(C=Nc2ccccn2)C(=O)N(C)C1=O [BA104],MIC80 C. albicans,[1],"— (none of the 5-acyl-2,4,6-pyrimidinetriones, 5-alkylated pyrimidinetriones or the 5,5-dialkylated pyrimidinetriones showed antifungal activity through 125 μg/mL)"
O=C1NC(=O)C(/C=N/NC(=O)c2ccc([N+](=O)[O-])cc2)C(=O)N1 [BA128],MIC80 C. albicans,[2],62* μg/mL
COc1ccc(N=CC2C(=O)NC(=O)NC2=O)cc1 [BA97],MIC80 C. albicans,[1],"— (none of the 5-acyl-2,4,6-pyrimidinetriones, 5-alkylated pyrimidinetriones or the 5,5-dialkylated pyrimidinetriones showed antifungal activity through 125 μg/mL)"
C/C(=N\NC(=O)c1ccccc1)C1C(=O)NC(=O)NC1=O [BA126],MIC80 C. albicans,[4],"— (none of the 5-acyl-2,4,6-pyrimidinetriones, 5-alkylated pyrimidinetriones or the 5,5-dialkylated pyrimidinetriones showed antifungal activity through 125 μg/mL)"
Cc1ccc(S(=O)(=O)N/N=C/C2C(=O)NC(=O)NC2=O)cc1 [BA113],MIC80 C. albicans,"Table 9, value marked ** (footnote not given)",16** μg/mL
CN1C(=O)C(C=NNS(=O)(=O)c2ccccc2)C(=O)N(C)C1=O [BA137],MIC80 C. albicans,[3],"— (none of the 5-acyl-2,4,6-pyrimidinetriones, 5-alkylated pyrimidinetriones or the 5,5-dialkylated pyrimidinetriones showed antifungal activity through 125 μg/mL)"
O=C1NC(=O)C(C=NNS(=O)(=O)c2ccccc2)C(=O)N1 [BA136],MIC80 C. albicans,[3],"— (none of the 5-acyl-2,4,6-pyrimidinetriones, 5-alkylated pyrimidinetriones or the 5,5-dialkylated pyrimidinetriones showed antifungal activity through 125 μg/mL)"
O=C1NC(=O)C(C=Nc2ccc([N+](=O)[O-])cc2)C(=O)N1 [BA101],MIC80 C. albicans,[1],"— (none of the 5-acyl-2,4,6-pyrimidinetriones, 5-alkylated pyrimidinetriones or the 5,5-dialkylated pyrimidinetriones showed antifungal activity through 125 μg/mL)"
"N/N=C/C1C(=O)NC(=O)NC1=O [BA116, 5-[(E)-hydrazinylidenemethyl]pyrimidine-2,4,6-trione]",MIC80,,125 µg/mL
COc1ccc(C(=O)NN=C(C)C2C(=O)NC(=O)NC2=O)cc1 [BA134],MIC80 C. albicans,[4],"— (none of the 5-acyl-2,4,6-pyrimidinetriones, 5-alkylated pyrimidinetriones or the 5,5-dialkylated pyrimidinetriones showed antifungal activity through 125 μg/mL)"
